Measurements as given in patent US20240075037A1, “SKIN BARRIER FUNCTION IMPROVING AGENT” (Japan Tobacco Inc., priority 2013, published 2024).
Where two headings read alike, the source gives them in different places.

What was measured:
dry skin model mouse [1] = experiment: Profilaggrin mRNA amount in dry skin model mouse (quantitative real-time PCR); assay type: in vivo; details: dry skin (A/E/W) model mouse, 0.5% (w/v) topical once a day, Days 0, 3 and 6, ratio to Day 0; FIG. 10
Experimental: Experiment 5. Increase in Profilaggrin mRNA Amount, Increase of NMF Production and Acceleration of Reduction in TEWL by JAK Inhibitor in Dry Skin Model Mouse
(§1) “Production of Dry Skin Model Mouse”
(§2) Using a dry skin model mouse <Non-Patent Literature 12>, the effect of improving the skin barrier function by a JAK inhibitor was evaluated. As an experimental animal, an 8 weeks old female C57BL/6JJmsSlc mouse {Japan SLC, Inc.} was used.
(§3) Absorbent cotton dipped in a mixed liquid of acetone and diethyl ether (1:1) was put on the surface of the inner side of the right or both auricles of the mouse for 30 seconds, and then absorbent cotton dipped in water was put on the same region for 30 seconds <hereinafter, abbreviated as an A/E/W treatment>. This treatment was conducted twice a day for seven days for each group to produce a dry skin model. The day on which the A/E/W treatment started was taken as Day 0. […]
“Quantitative Real-Time PCR”
A mouse having undergone the A/E/W treatment on its right auricle was used in the experiment. […] The cDNA was analyzed by real-time PCR method <intercalator method> using Light Cycler 480 SYBR Green I Master {Roche Diagnostics K.K.} and Light Cycler 480 II {Roche Diagnostics K.K.}, and the Ct values of mouse profilaggrin and GAPDH were respectively determined. […] A relative mRNA amount of mouse profilaggrin was calculated by comparative Ct method. […]

dry skin model mouse [2] = experiment: NMF production in dry skin model mouse (confocal Raman); assay type: in vivo; details: dry skin (A/E/W) model mouse, 0.5% (w/v) topical once a day, Day 7; FIG. 11
Experimental: as §1, §2
as §3, with “model.” for “model. The day on which the A/E/W treatment started was taken as Day 0.”
A mouse having undergone the A/E/W treatment on its both auricles was used in the experiment. On Day 7, the total NMF amount of the stratum corneum of both the auricles of the mouse was determined by an in vivo confocal Raman spectrometer {model 3510, River Diagnostics, Inc.} <Compound A administration group and Vehicle group; n=3, respectively>.
A Raman spectrum in the region of 400 to 1800 cm^−1 was measured at an excitation wavelength of 785 nm at intervals of 1 micrometer from the surface of the inner side of the left auricle to the depth of 8 micrometers. A total NMF amount was quantified as an amount per keratin by using Skin Tools 2.0 {River Diagnostics, Inc.}. […]

[3] = tested on: Tape Stripping-treated mouse; experiment: NMF production increasing action in Tape Stripping-treated mouse (confocal Raman); assay type: in vivo; details: 0.5% (w/v) in acetone applied to auricle once a day, one, five and seven days after Tape Stripping, FIGS. 5, 6
Experimental: As an experimental animal, an 8 to 10 weeks old female C57BL/6j mouse {SHIMIZU Laboratory Supplies Co., Ltd.} was used.
The operation of sticking a cellophane adhesive tape {NICHIBAN CO. , Ltd.} on the inner side of the left auricle of the mouse and peeling the tape off <Tape Stripping> was repeated five times to peel off the cuticle. Each 0.02 mL of acetone <Vehicle> or 0.5% (w/v) test substance was applied to the site having undergone the Tape Stripping once a day until the sixth day after the Tape Stripping. On Day 1 of the Tape Stripping, acetone <Vehicle> or a test substance was applied one hour after the Tape stripping. Compound A or monocitrate of Compound B was used as a test substance.
After one, five and seven days from the Tape Stripping, the total NMF amount of the inner side of the left auricle was determined by an in vivo confocal Raman spectrometer {model 3510, River Diagnostics, Inc.}.
A Raman spectrum in the region of 400 to 1800 cm^−1 was measured at an excitation wavelength of 785 nm at intervals of 1 micrometer from the surface of the inner side of the left auricle to the depth of 8 micrometers. A total NMF amount was quantified as an amount per keratin by using Skin Tools 2.0 {River Diagnostics, Inc.}. […] An average value of the total NMF amount was calculated for each measurement depth, and was shown as an individual value at each depth.

dry skin model mouse [4] = experiment: TEWL in dry skin model mouse; assay type: in vivo; details: dry skin (A/E/W) model mouse, 0.5% (w/v) topical once a day, Days 0, 1, 3, 4 and 7; FIG. 12
Experimental: as §1, §2
as §3, with “0. As a normal control group, a mouse not having undergone the A/E/W treatment was used.” for “0.”
A mouse having undergone the A/E/W treatment on its right auricle was used in the experiment. TEWL in the region where the A/E/W treatment had been conducted was measured directly before the A/E/W treatment on Days 0, 1, 3 and 4, and on Day 7 <Compound A administration group and Vehicle group; n=4, respectively>. TEWL was measured by using a water loss measuring device VAPOSCAN AS-VT100RS {ASAHIBIOMED} at room temperatures (23° C. to 26° C.) and a humidity of 40% to 60%. […]

JAK = details: cited from earlier work
[5] = tested on: contact dermatitis model mouse; experiment: Suppression of ear swelling in contact dermatitis model mouse (DNFB); assay type: in vivo; details: oral 0.3 or 3 mg/mL at 10 mL/Kg once a day, 24 hours from initiation, FIG. 7
Experimental: Using a contact dermatitis model mouse against DNFB <Non-Patent Literature 10>, the ear swelling suppressing action of the JAK inhibitor was evaluated. As an experimental animal, an 8 weeks old female C57BL/6j mouse {SHIMIZU Laboratory Supplies Co., Ltd.} was used.
An abdominal region of the mouse was shaved, and each 0.025 mL of 0.5% (w/v) DNFB {2,4-Dinitrofluorobenzene, Sigma-Aldrich Corporation} diluted with AOO <mixed solution of acetone and olive oil in 4:1> was applied on the abdominal region . After five days, each 0.01 mL of 0.3% (w/v) DNFB diluted with AOO was applied on the front and back of both the auricles of the mouse . For five days from the date of sensitization, 0.5% (w/v) methylcellulose <MC> was administered once a day to the Vehicle group, and 0.3 mg/mL or 3 mg/mL of Compound A suspended in 0.5% (w/v) MC was orally administered to Compound A administration group in a dose of 10 mL/Kg. Each group included three animals. On the days of sensitization and initiation, 0.5% (w/v) MC or Compound A was orally administered one hour before sensitization and initiation.
Before initiation and after 24 hours from initiation, the thickness of each auricle was measured once with a thickness gauge {TECLOCK Corporation}, and an average of the variation from the thickness of each auricle before initiation was taken as an individual value.

[6] = tested on: three-dimensional culture skin model TESTSKIN LSE-high; experiment: Increase in protein amount of skin barrier-related protein in three-dimensional culture skin model (Western blotting); assay type: cell-based, human; details: 1000 nmol/L
Experimental: Experiment 4. Increase in Protein Amount of Skin Barrier-Related Protein by JAK Inhibitor in Three-Dimensional Culture Skin Model
As a three-dimensional cultured skin model, TESTSKIN LSE-high {TOYOBO CO., LTD., TMLSE-013A} was used <Non-Patent Literature 11>. According to the instruction manual of the TESTSKIN LSE-high, the Living Skin Equivalent <LSE> tissue on the Transwell was cultured in an assay medium included in the kit at 37° C. under 5% CO2 for 24 hours.
After removing the medium from the LSE tissue culture system, an assay medium containing Compound A in a final concentration of 1000 nmol/L was added in the presence or absence of human IL-4 and human IL-13 {R&D Systems, Inc.} in a final concentration of 20 ng/mL, respectively, and the LSE tissue was cultured at 37° C. under 5% CO2 for three days. The medium was replaced in the same manner as described above, and the LSE tissue was cultured at 37 ° C. under 5% CO2 for another two days. The skin layer of the LSE tissue was collected in a tube, and 0.1 mL of a 50 mmol/L Tris-HCl (pH 8.0) buffer containing 9 mol/L urea, 2% Triton X-100, protease inhibitor cocktail {Sigma-Aldrich Corporation, P8340} and phosphatase inhibitor cocktail {NACALAI TESQUE, INC., 07575-51} was added, and lysed by ultrasonication. To the tissue lysate, 0.08 mL of laemmli SDS-PAGE sample buffer containing 1.73 mmol/L 2-mercaptoethanol was added, and heated at 95 degrees Celsius for five minutes to thermally denature proteins.
The thermally denatured proteins (0.015 mg/lane) were separated by SDS-polyacrylamide electrophoresis <SDS-PAGE> on 4-12% NuPAGE Bis-Tris gel {Life technologies Corporation}, and filaggrin protein and loricrin protein were detected by Western blotting method. As an internal standard, GAPDH protein was detected. According to ordinary methods, the protein that was separated by SDS-PAGE was blotted on a PVDF membrane {GE Healthcare Ltd.}, and the PVDF membrane was blocked with 5% skim milk {NACALAI TESQUE, INC.}. […] The protein of interest was detected by light exposure to an autoradiography film, Amersham Hyperfilm ECL {GE Healthcare Ltd.} from the PVDF membrane, by using a chemiluminescent substrate {ECL Western Blotting Detection Reagents; GE Healthcare Ltd., RPN2232} according to the instruction manual.

[7] = in the absence of IL-4/IL-13, five days
[8] = in the presence of IL-4/IL-13 20 ng/mL, five days, FIG. 8

| Compound | profilaggrin mRNA amount (dry skin model mouse [1]) | total NMF amount (NMF production) (dry skin model mouse [2]) | total NMF amount (NMF production) [3] | TEWL (transepidermal water loss) (dry skin model mouse [4]) | JAK inhibition (JAK; stated as known) | ear swelling (auricle thickness variation) [5] | filaggrin protein amount [6, 7] | loricrin protein amount [6, 7] | filaggrin protein amount [6, 8] | loricrin protein amount [6, 8] | JAK inhibition (JAK) |
| --- | --- | --- | --- | --- | --- | --- | --- | --- | --- | --- | --- |
| C[C@H]1CN(C(=O)CC#N)[C@]12CCN(c1ncnc3[nH]ccc13)C2 [Compound A, 3-[(3S,4R)-3-methyl-6-(7H-pyrrolo[2,3-d]pyrimidin-4-yl)-1,6-diazaspiro[3.4]octan-1-yl]-3-oxopropanenitrile] | increase | NMF production increasing action | NMF production increasing action | accelerating a reduction in TEWL | known to inhibit JAK | suppression of ear swelling | increase | increase | increase | increase |  |
| N#CC[C@H](C1CCCC1)n1cc(-c2ncnc3[nH]ccc23)cn1 [Compound C, (3R)-3-cyclopentyl-3-[4-(7H-pyrrolo[2,3-d]pyrimidin-4-yl)-1 H-pyrazol-1-yl]propanenitrile, reference compound] |  |  |  |  |  |  |  |  |  |  | known to inhibit JAK |
| C[C@@H]1CCN(C(=O)CC#N)C[C@@H]1N(C)c1ncnc2[nH]ccc12 [monocitrate of Compound B, 3-{(3R,4R)-4-methyl-3-[methyl(7H-pyrrolo[2,3-d]pyrimidin-4-yl)amino]piperidin-1-yl}-3-oxopropanenitrile, reference compound] |  |  | NMF production increasing action |  |  |  |  |  |  |  |  |
